Assay results taken from article PMC12677607, “Identification of a Pair of Linear or Cyclic Naturally Inspired Bifunctional Lipopeptide Antibiotics That Overcome Antimicrobial Resistance” (Advanced Science, 2025).
Bridge positions count the residues as written; N and C are the ends. Square brackets hold non-standard residues; d marks the D form. Peptide text beside a SMILES is read from it. * marks the point of attachment. Myristoyl = CCCCCCCCCCCCCC(=O)*; Orn = NCCC[C@H](N)C(=O)O; Dab = NCC[C@H](N)C(=O)O; Dap = NC[C@H](N)C(=O)O

Columns and labels:
[1] = tested on: S. aureus USA300; assay: Scanning electron microscopy of treated cultures; format: cell-based; details: 4× the MIC, after 180 min of treatment
[2] = tested on: S. aureus USA300; assay: Resistance acquisition by serial passaging; format: cell-based; details: S. aureus USA300, sub-MIC levels, daily passage for 21 days, n = 2
Experimental: (§1) Overnight cultures S. aureus USA300 were diluted 10000‐fold in LB broth, and 100 µL of dilute cell suspension was added to 96‐well plates containing 100 µL serially diluted aquicidine C4, telomycin, and daptomycin (with 15 mM CaCl2). Overnight cultures K. pneumoniae CRKP5452 were diluted 5000‐fold in LB broth, and 100 µL of dilute cell suspension was added to 96‐well plates containing 100 µL serially diluted aquicidine L and colistin. After an incubation of 24 h at 37 °C, the MIC value was determined. […] The MIC value was recorded as described above, and the process was repeated daily for 21 days. Experiments were performed two independent times (n = 2).

[3] = tested on: methicillin-resistant S. aureus USA300; assay: Mouse peritonitis-sepsis model; format: in vivo; details: S. aureus USA300, ICR mice, single s.c. dose 1 h after infection, doses 50, 100, 150 mg kg^−1, n = 5
Experimental: (§2) Six‐week‐old female ICR mice were used in all experiments and housed in a temperature‐controlled room (25 °C) with 12‐h light/dark cycle and 30% relative humidity. Mice were observed twice daily for mortality and morbidity. Abnormal clinical signs were recorded if observed and totally monitored for five days. The detailed methods for the mouse peritonitis‐sepsis model were as follows.
Methicillin‐resistant S. aureus USA300 was cultured in LB broth at 37 °C for 16 h and diluted with 7% type II porcine stomach mucin with 0.2 mM FeNH4‐citrate. S. aureus cell cultures were diluted to provide a challenge inoculum of 2.5 × 10^8 CFU in 0.5 mL and then administered into each mouse via intraperitoneal injection. 25 mice were randomly grouped into five per cohort (n = 5) and each cohort was given a single dose of either vehicle (20% solutol), aquicidine C4 at 50, 100, or 150 mg kg^−1, and vancomycin at 50 mg kg^−1 1 hr after infection via subcutaneous injection.

[4] = tested on: K. pneumoniae 15580; assay: MIC against colistin-resistant strain; format: cell-based; details: Figure S127a
Experimental: All MIC assays were performed two independent times (n = 2) in 96‐well plates using a broth micro‐dilution method. The lowest concentration of that inhibited visible microbial growth was recorded as the MIC value.
For most of bacterial strains, overnight cultures were diluted 5000‐fold in LB broth. For E. faecium and S. aureus, overnight cultures were diluted 1000‐ and 10000‐fold in LB broth, respectively. 100 µL of diluted cells was mixed with 100 µL of LB broth containing each peptide ranging from 64 to 0.125 µg mL^−1 at 2‐fold serial dilutions.

[5] = tested on: meropenem-resistant A. baumannii 1104008; assay: Mouse peritonitis-sepsis model; format: in vivo; details: A. baumannii 1104008, neutropenic ICR mice, s.c. 1 h after infection and every 12 h up to 36 h, doses 12.5, 25, 50 mg kg^−1, n = 5
Experimental: as §2
(§3) Meropenem‐resistant A. baumannii 1104008 or K. pneumoniae CRKP 5452 was cultured in LB broth at 37 °C fro 16 h and diluted with 5% type II porcine stomach mucin and 0.9% NaCl. All mice were rendered […] via intraperitoneal injection of cyclophosphamide at 150 mg/kg on day‐4 and day‐1 before infection. A. baumannii or K. pneumoniae cell cultures were diluted to provide a challenge inoculum of 5.0 × 10^7 CFU in 0.5 mL and then administered into each mouse via intraperitoneal injection. 25 mice were randomly grouped into five per cohort (n = 5) and each cohort was given a single dose of either vehicle (20% solutol), aquicidine L at 12.5, 25, or 50 mg kg^−1, and colistin at 12.5 mg kg^−1 1 h after infection via subcutaneous injection and repeated every 12 h up to 36 h (totally four injections).

[6] = tested on: meropenem-resistant K. pneumoniae CRKP 5452; assay: Mouse peritonitis-sepsis model; format: in vivo; details: K. pneumoniae CRKP5452, neutropenic ICR mice, s.c. 1 h after infection and every 12 h up to 36 h, doses 12.5, 25, 50 mg kg^−1, n = 5
Experimental: as §2, §3

[7] = tested on: K. pneumoniae CRKP5452; assay: Resistance acquisition by serial passaging; format: cell-based; details: K. pneumoniae CRKP5452, sub-MIC levels, daily passage for 21 days, n = 2
Experimental: as §1

[8] = tested on: E. coli

| Structure (SMILES) | scanning electron microscopy, cell lysis [1] | increase of MIC during serial passaging [2] | minimal dose required for 100% survival [3] [mg/kg] | antibacterial activity (MIC) K. pneumoniae 15580 [4] [µg/mL] | minimal dose required for 100% survival [5] [mg/kg] | minimal dose required for 100% survival [6] [mg/kg] | increase of MIC during serial passaging [7] | resistant mutants by direct plating [8] |
| --- | --- | --- | --- | --- | --- | --- | --- | --- |
| CCCCCCCCCCCCCC(=O)N[C@@H](CN)C(=O)N[C@H](C(=O)N[C@@H](CC(C)C)C(=O)N[C@H]1COC(=O)[C@H](Cc2ccccc2)NC(=O)[C@H](CC(N)=O)NC(=O)[C@H](CCCN)NC(=O)[C@H]([C@@H](C)CC)NC(=O)[C@H](Cc2ccccc2)NC(=O)[C@H](CN)NC(=O)[C@H](CCN)NC1=O)[C@@H](C)O [synAQU5-C4] (Myristoyl-[Dap]TLS[Dab][Dap]FI[Orn]NF; ester 4-C) | lysed the majority of cells | no higher than twofold | 100 |  |  |  |  |  |
| CCCCCCCCCCCCCC(=O)N[C@@H](CN)C(=O)N[C@H](C(=O)N[C@@H](CC(C)C)C(=O)N[C@@H](CO)C(=O)N[C@@H](CCN)C(=O)N[C@@H](CN)C(=O)N[C@@H](Cc1ccccc1)C(=O)N[C@H](C(=O)N[C@@H](CCCN)C(=O)N[C@@H](CC(N)=O)C(=O)N[C@@H](Cc1ccccc1)C(=O)O)[C@@H](C)CC)[C@@H](C)O [synAQU5-L] (Myristoyl-[Dap]TLS[Dab][Dap]FI[Orn]NF-OH) |  |  |  | 8 | 50 | 50 | no higher than two‐fold | failed to identify E. coli resistant mutants |
